Reference: US20220218765A1, “ASSISTANT AGENT FOR ASSISTING INTRODUCTION INTO LIVING BODY AND METHOD OF UTILIZING THE SAME” (SHINBIOSIS CORPORATION, priority 2019, published 2022)

System: STZ-induced diabetes model mouse (STZ-mouse)
Assay: Blood glucose level in STZ-induced diabetes model mouse (Test Example 4-1)
Format: in vivo, CD-1 (ICR) mice
Conditions: STZ-mice, Day 14 after the treatment
Procedure: The “complex containing an active substance” was injected into the intestine of a STZ-induced diabetes model mouse (STZ-mouse) together with the “assistant agent for assisting introduction into a living body”, and then measurement of a “change in plasma glucose (blood glucose level) (Test Example 4-1)” and “measurement of the plasma insulin level (Test Example 4-2)” at the end of the treatment were performed.
“Compositions containing an active substance” below were prepared by mixing the above-described “active substance complex (Bio3 formulation)” with the respective “assistant agents for assisting introduction into a living body” above, and were then used in the experiments.
CD-1 (ICR) mice (male, 4 weeks old) purchased from Charles River Japan were preliminarily kept for 1 week before experiment.
Procedure for Producing Disease Model Mice STZ (40 mg/kg) prepared in a citrate buffer (100 mmol/L, pH 4.5) was intravenously administered (iv) to the tail veins of the above-mentioned mice.
One week after, blood was collected from ophthalmic venous plexus of the mice with a capillary, and the mice were divided into the following four groups (six mice per group) based on the measured blood glucose levels such that the average blood glucose levels of the groups were equal to one another as follows. […]

Substance: insulin
- blood glucose level as ratio to the non-treated control group: up to 60%
